Laboratory results reported in patent US10562912B2 (C&C Research Laboratories, priority 2013, dated 2020).

Experiments:
Format in all cases: cell-based
STAT3 = biological target: T1, STAT3 (Homo sapiens, UniProt P40763); assay: STAT3 reporter gene assay (luciferase), LNCaP stable cell line (pSTAT3-TA-luc), IL-6 stimulation
T1 construct: plasmid pSTAT3-TA-luc), which contains a stably operating STAT3 promoter; endogenous in cells
Summary of the method: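 LNCaP cells stably carrying pSTAT3-TA-luc, in RPMI1640 with 3% DCC-FBS, were treated with compound and then stimulated with 10 ng/mL IL-6 for 24–48 h at 37 °C. Luciferase activity was measured in lysates. A parallel plate measured viability by CellTiter-Glo, with stimulated 0.1% DMSO wells as the positive control.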

DU-145 = assay: Cell growth inhibition assay, prostate cancer cell line DU-145; settings: Homo sapiens, DU-145 prostate cancer cell line
Summary of the method: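 DU-145 and HCT116 cells were plated at 3,000 cells/well and SW626 at 5,000 cells/well, then treated with serially diluted compounds. After 72 to 96 hours at 37° C. under 5% CO2, viability was read by CellTiter-Glo luminescence against cell-free medium wells and 0.1% DMSO wells.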

LNCaP = assay: Cell growth inhibition assay, prostate cancer cell line LNCaP (medium with 10 ng/mL IL-6); settings: Homo sapiens, medium supplemented with 10 ng/mL of IL-6, 10,000 cells/well

T1 sequence (P40763 whole entry): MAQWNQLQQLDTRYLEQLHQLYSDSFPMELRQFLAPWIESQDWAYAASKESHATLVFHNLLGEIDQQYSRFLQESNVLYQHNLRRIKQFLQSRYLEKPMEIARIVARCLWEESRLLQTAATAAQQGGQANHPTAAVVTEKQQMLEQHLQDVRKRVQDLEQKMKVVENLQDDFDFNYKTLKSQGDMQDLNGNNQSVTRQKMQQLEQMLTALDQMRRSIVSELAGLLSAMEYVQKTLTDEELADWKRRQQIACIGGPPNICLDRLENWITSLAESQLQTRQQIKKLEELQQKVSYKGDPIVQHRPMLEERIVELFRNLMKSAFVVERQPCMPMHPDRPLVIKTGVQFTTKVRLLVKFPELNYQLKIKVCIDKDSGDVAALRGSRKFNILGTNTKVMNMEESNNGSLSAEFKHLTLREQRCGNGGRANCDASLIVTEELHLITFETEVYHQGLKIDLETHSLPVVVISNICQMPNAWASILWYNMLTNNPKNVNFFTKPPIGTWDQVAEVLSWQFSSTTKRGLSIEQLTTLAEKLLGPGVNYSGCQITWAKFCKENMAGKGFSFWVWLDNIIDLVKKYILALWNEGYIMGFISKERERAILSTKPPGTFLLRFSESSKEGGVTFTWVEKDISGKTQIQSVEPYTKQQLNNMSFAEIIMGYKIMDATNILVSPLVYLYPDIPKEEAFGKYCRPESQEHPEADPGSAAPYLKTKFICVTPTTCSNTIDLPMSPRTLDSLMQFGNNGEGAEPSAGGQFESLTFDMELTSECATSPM

Row | Structure (SMILES) | IC50 (STAT3) | IC50 (DU-145) | IC50 (LNCaP)
1 | CS(=O)(=O)Nc1ccc2sc(C(=O)Nc3cc(Cl)cc(-c4ccsc4)c3)cc2c1 [Example 332, N-(3-chloro-5-(thiophen-3-yl)phenyl)-5-(methylsulfonamido)benzo[b]thiophene-2-carboxamide] | 0.061 µM | 0.042 µM | 0.17 µM
2 | CC(C)Oc1cc(OC(F)(F)F)cc(N(C)c2cc(Cl)cc(NC(=O)c3cc4cc(NS(C)(=O)=O)ccc4s3)c2)c1 [Example 443, N-(3-chloro-5-((3-isopropoxy-5-(trifluoromethoxy)phenyl)(methyl)amino)phenyl)-5-(methylsulfonamido)benzo[b]thiophene-2-carboxamide] | 0.065 µM | 0.02 µM | 0.039 µM
3 | COc1ccc(C(C)(C)c2cc(Cl)cc(NC(=O)c3cc4cc(NS(C)(=O)=O)c(Cl)cc4s3)c2)cc1 [Example 183, 6-chloro-N-(3-chloro-5-(2-(4-methoxyphenyl)propan-2-yl)phenyl)-5-(methylsulfonamido)benzo[b]thiophene-2-carboxamide] | 0.01 µM | 0.005 µM | 0.013 µM
4 | CC(C)Oc1cc(CN2CCN(S(C)(=O)=O)CC2)cc(C(C)(C)c2cc(Cl)cc(NC(=O)c3cc4cc(NS(C)(=O)=O)ccc4s3)c2)c1 [Example 128, N-(3-chloro-5-(2-(3-isopropoxy-5-((4-(methylsulfonyl)piperazin-1-yl)methyl)phenyl)propan-2-yl)phenyl)-5-(methylsulfonamido)benzo[b]thiophene-2-carboxamide] | 0.27 µM | 0.15 µM | 0.41 µM
5 | Cc1ccc(Oc2cc(Cl)cc(NC(=O)c3cc4cc(NS(C)(=O)=O)c(Cl)cc4s3)c2)s1 [Example 487, 6-chloro-N-(3-chloro-5-((5-methylthiophen-2-yl)oxy)phenyl)-5-(methylsulfonamido)benzo[b]thiophene-2-carboxamide] | 0.059 µM | 0.025 µM | 0.036 µM
6 | CS(=O)(=O)Nc1ccc2sc(C(=O)Nc3cc(Cl)cc(Oc4ccc(Cl)c(F)c4)c3)cc2c1 [Example 466, N-(3-chloro-5-(4-chloro-3-fluorophenoxy)phenyl)-5-(methylsulfonamido)benzo[b]thiophene-2-carboxamide] | 0.12 µM | 0.063 µM | 0.079 µM
7 | CS(=O)(=O)Nc1cc2cc(C(=O)Nc3cc(Cl)cc(OC4CCCCC4)c3)sc2cc1Cl [Example 486, 6-chloro-N-(3-chloro-5-(cyclohexyloxy)phenyl)-5-(methylsulfonamido)benzo[b]thiophene-2-carboxamide] | 0.11 µM | 0.048 µM | 0.083 µM
8 | CC(C)Oc1cc(CN2CCC3(CC2)COC3)cc(C(C)(C)c2cc(Cl)cc(NC(=O)c3cc4cc(NS(C)(=O)=O)ccc4s3)c2)c1 [Example 134, N-(3-(2-(3-((2-oxa-7-azaspiro[3,5]nonan-7-yl)methyl)-5-isopropoxyphenyl)propan-2-yl)-5-chlorophenyl)-5-(methylsulfonamido)benzo[b]thiophene-2-carboxamide] | 0.27 µM | 0.16 µM | 0.84 µM
9 | CS(=O)(=O)Nc1ccc2sc(C(=O)Nc3cc(Cl)cc(Oc4ccc(C(F)(F)F)cc4)c3)cc2c1 [Example 465, N-(3-chloro-5-(4-(trifluoromethyl)phenoxy)phenyl)-5-(methylsulfonamido)benzo[b]thiophene-2-carboxamide] | 0.12 µM | 0.048 µM | 0.063 µM
10 | CC(C)(c1cc(Cl)cc(NC(=O)c2cc3cc(NS(C)(=O)=O)ccc3s2)c1)c1cc(OC2COC2)cc(OC(F)(F)F)c1 [Example 76, N-(3-chloro-5-(2-(3-(oxetan-3-yloxy)-5-(trifluoromethoxy)phenyl)propan-2-yl)phenyl)-5-(methylsulfonamido)benzo[b]thiophene-2-carboxamide] | 3 µM | 0.34 µM | 0.23 µM
11 | COc1ccc(Oc2cc(Cl)cc(NC(=O)c3cc4cc(NS(C)(=O)=O)ccc4s3)c2)cc1 [Example 447, N-(3-chloro-5-(4-methoxyphenoxy)phenyl)-5-(methylsulfonamido)benzo[b]thiophene-2-carboxamide] | 0.27 µM | 0.14 µM | 0.49 µM
12 | Cc1csc(C(C)(C)c2cc(Cl)cc(NC(=O)c3cc4cc(NS(C)(=O)=O)c(Cl)cc4s3)c2)c1 [Example 181, 6-chloro-N-(3-chloro-5-(2-(4-methylthiophen-2-yl)propan-2-yl)phenyl)-5-(methylsulfonamido)benzo[b]thiophene-2-carboxamide] | 0.005 µM | 0.005 µM | 0.006 µM
13 | C=CCOc1cc(OC(F)(F)F)cc(C(C)(C)c2cc(Cl)cc(NC(=O)c3cc4cc(NS(C)(=O)=O)ccc4s3)c2)c1 [Example 78, N-(3-(2-(3-(allyloxy)-5-(trifluoromethoxy)phenyl)propan-2-yl)-5-chlorophenyl)-5-(methylsulfonamido)benzo[b]thiophene-2-carboxamide] | 0.017 µM | 0.009 µM | 0.038 µM
14 | CCn1cccc1C(C)(C)c1cc(Cl)cc(NC(=O)c2cc3cc(NS(C)(=O)=O)ccc3s2)c1 [Example 187, N-(3-chloro-5-(2-(1-ethyl-1H-pyrrol-2-yl)propan-2-yl)phenyl)-5-(methylsulfonamido)benzo[b]thiophene-2-carboxamide] | 0.11 µM | 0.042 µM | 0.1 µM

The next lines start with the values.

Row | IC50 (STAT3) | IC50 (DU-145) | IC50 (LNCaP) | Structure (SMILES)
15 | 0.76 µM | 0.31 µM | 0.56 µM | CS(=O)(=O)Nc1ccc2sc(C(=O)Nc3cc(Cl)cc(-c4cncc(Cl)n4)c3)cc2c1 [Example 339, N-(3-chloro-5-(6-chloropyrazin-2-yl)phenyl)-5-(methylsulfonamido)benzo[b]thiophene-2-carboxamide]
16 | > 10 µM | > 1.1 µM | > 1.1 µM | CS(=O)(=O)Nc1cc2cc(C(=O)Nc3cc(Cl)cc(Oc4cc(O)cc(Cl)c4)c3)sc2cc1Cl [Example 475, 6-chloro-N-(3-chloro-5-(3-chloro-5-hydroxyphenoxy)phenyl)-5-(methylsulfonamido)benzo[b]thiophene-2-carboxamide]
17 | 0.13 µM | 0.07 µM | 0.11 µM | CC(C)(c1cc(Cl)cc(NC(=O)c2cc3cc(NS(C)(=O)=O)c(Cl)cc3s2)c1)N1CCCCC1 [Example 165, 6-chloro-N-(3-chloro-5-(2-(piperidin-1-yl)propan-2-yl)phenyl)-5-(methylsulfonamido)benzo[b]thiophene-2-carboxamide]
18 | 0.054 µM | 0.026 µM | 0.056 µM | CC(C)(c1ccc(Cl)cc1)c1cc(Cl)cc(NC(=O)c2cc3cc(NS(=O)(=O)CCO)c(Cl)cc3s2)c1 [Example 188, 6-chloro-N-(3-chloro-5-(2-(4-chlorophenyl)propan-2-yl)phenyl)-5-((2-hydroxyethyl)sulfonamido)benzo[b]thiophene-2-carboxamide]
19 | 0.15 µM | 0.22 µM | 0.7 µM | CC(C)Oc1cc(CN2CCN(C(=O)N(C)C)CC2)cc(C(C)(C)c2cc(Cl)cc(NC(=O)c3cc4cc(NS(C)(=O)=O)ccc4s3)c2)c1 [Example 133, 4-(3-(2-(3-chloro-5-(5-(methylsulfonamido)benzo[b]thiophene-2-carboxamido)phenyl)propan-2-yl)-5-isopropoxybenzyl)-N,N-dimethylpiperazine-1-carboxamide]
20 | 0.15 µM | 0.13 µM | 0.23 µM | CS(=O)(=O)Nc1ccc2sc(C(=O)Nc3cc(Cl)cc(Oc4ccc(F)c(F)c4)c3)cc2c1 [Example 460, N-(3-chloro-5-(3,4-difluorophenoxy)phenyl)-5-(methylsulfonamido)benzo[b]thiophene-2-carboxamide]
21 | 0.016 µM | 0.005 µM | 0.013 µM | CS(=O)(=O)Nc1cc2cc(C(=O)Nc3cc(Cl)cc(Oc4ccc(C(F)(F)F)cc4)c3)sc2cc1Cl [Example 482, 6-chloro-N-(3-chloro-5-(4-(trifluoromethyl)phenoxy)phenyl)-5-(methylsulfonamido)benzo[b]thiophene-2-carboxamide]
22 | 0.013 µM | 0.006 µM | 0.01 µM | CS(=O)(=O)Nc1cc2cc(C(=O)Nc3cc(Cl)cc(C4(c5ccc(Cl)cc5)CC4)c3)sc2cc1Cl [Example 433, 6-chloro-N-(3-chloro-5-(1-(4-chlorophenyl)cyclopropyl)phenyl)-5-(methylsulfonamido)benzo[b]thiophene-2-carboxamide]
23 | 0.19 µM | 0.15 µM | 0.27 µM | CS(=O)(=O)Nc1ccc2sc(C(=O)Nc3cc(Cl)cc(Oc4cc(F)cc(F)c4)c3)cc2c1 [Example 463, N-(3-chloro-5-(3,5-difluorophenoxy)phenyl)-5-(methylsulfonamido)benzo[b]thiophene-2-carboxamide]
24 | 0.021 µM | 0.021 µM | 0.037 µM | COc1cc(F)cc(Oc2cc(Cl)cc(NC(=O)c3cc4cc(NS(C)(=O)=O)c(Cl)cc4s3)c2)c1 [Example 484, 6-chloro-N-(3-chloro-5-(3-fluoro-5-methoxyphenoxy)phenyl)-5-(methylsulfonamido)benzo[b]thiophene-2-carboxamide]
25 | 0.012 µM | 0.007 µM | 0.013 µM | CN(c1ccc2sc(C(=O)Nc3cc(Cl)cc(Oc4ccc(Cl)cc4)c3)cc2c1)S(C)(=O)=O [Example 220, N-(3-chloro-5-(4-chlorophenoxy)phenyl)-5-(N-methylmethylsulfonamido)benzo[b]thiophene-2-carboxamide]
